Experiment [1] relates to human non-small cell lung cancer cell line NCI-H460. Kind of experiment: Cell proliferation inhibition test by sensitivity-enhancing to ionizing radiation (Cell Titer Glo). Conditions: concentration in which SER became 2, NCI-H460 cells, ionizing radiation 2 Gy, cultured 120 hour. It is filed as cell-based. The method, then:
A human non-small cell lung cancer cell line NCI-H460 (ATCC company) was adjusted so as to be 2×10^3 cells/mL in a RPMI-1640 medium containing penicillin/streptomycin and FBS having a final concentration of 10%, and this was seeded by 100 μL per well in 96-well CellBIND® plates (Corning International Inc.). After 24 hours, the medium of cells was replaced with 100 μL of a medium including serially diluted liquid of the test compound or DMSO having a final concentration of 0.1%. 30 minutes after the medium was replaced, half of the plates were irradiated with ionizing radiation 2 Gy (Faxitron Bioptics, LLC, RX-650 type). The cells of the plates irradiated with ionizing radiation and the plates not being irradiated with ionizing radiation were cultured at 37° C. for 120 hour in 5% CO2. After a Cell Titer Glo reaction liquid of an equal volume was added to each well, the amount of luminescence was measured, according to the instruction book of Cell Titer Glo (Promega Corporation). Since the amount of luminescence is proportional to the ATP concentration in cells, the amount of luminescence was used as an indicator of the number of viable cells. Sensitivity-enhancing effects (SER) to ionizing radiation by the test compound was calculated by the following equation. SER=(amount of luminescence of wells including DMSO having a final concentration of 0.1% in the plates irradiated with ionizing radiation×amount of luminescence of wells including a compound in the plates not being irradiated with ionizing radiation)/(amount of luminescence of wells including the test compound in the plates irradiated with ionizing radiation×amount of luminescence of wells including DMSO having a final concentration of 0.1% in the plates not being irradiated with ionizing radiation)
SER at each compound concentration was plotted by nonlinear regression fit (FitModel (205)) by a sigmoidal dose-response equation using XLfit software (IDBS), and the concentration (SER2) in which SER became 2 was calculated.
On the technique in general: Cellular ATP, detected with luciferase, serves as a proxy for viable cell number.

The target in another experiment is T1, ATM (Homo sapiens, UniProt Q13315).
T1 construct: detecting phosphorylation of Chk2 in a human non-small cell lung cancer cell line NCI-H460 (ATCC company); host or cells: NCI-H460 human non-small cell lung cancer cells
Kind of experiment: ATM inhibition test (phosphorylation of Chk2 generated by ionizing radiation, AlphaScreen SureFire). It is filed as cell-based. Conditions: phosphorylated Chk2 in NCI-H460 cells, ionizing radiation 8Gy, 1 hour after test compound treatment; read-out: ATM inhibitory activity. A digest of the protocol: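 Human NCI-H460 lung cancer cells were treated with compound for 1 h, then irradiated at 8Gy and incubated 1 h at 37° C. Phospho-Chk2 was quantified by AlphaScreen SureFire; inhibition % was normalised between irradiated untreated and non-irradiated untreated wells.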
For orientation: In Alpha technology, singlet oxygen from a donor bead excites a nearby acceptor bead.

A value given as a limit tells only on which side of the number the result lay.

T1 sequence (Q13315 whole entry): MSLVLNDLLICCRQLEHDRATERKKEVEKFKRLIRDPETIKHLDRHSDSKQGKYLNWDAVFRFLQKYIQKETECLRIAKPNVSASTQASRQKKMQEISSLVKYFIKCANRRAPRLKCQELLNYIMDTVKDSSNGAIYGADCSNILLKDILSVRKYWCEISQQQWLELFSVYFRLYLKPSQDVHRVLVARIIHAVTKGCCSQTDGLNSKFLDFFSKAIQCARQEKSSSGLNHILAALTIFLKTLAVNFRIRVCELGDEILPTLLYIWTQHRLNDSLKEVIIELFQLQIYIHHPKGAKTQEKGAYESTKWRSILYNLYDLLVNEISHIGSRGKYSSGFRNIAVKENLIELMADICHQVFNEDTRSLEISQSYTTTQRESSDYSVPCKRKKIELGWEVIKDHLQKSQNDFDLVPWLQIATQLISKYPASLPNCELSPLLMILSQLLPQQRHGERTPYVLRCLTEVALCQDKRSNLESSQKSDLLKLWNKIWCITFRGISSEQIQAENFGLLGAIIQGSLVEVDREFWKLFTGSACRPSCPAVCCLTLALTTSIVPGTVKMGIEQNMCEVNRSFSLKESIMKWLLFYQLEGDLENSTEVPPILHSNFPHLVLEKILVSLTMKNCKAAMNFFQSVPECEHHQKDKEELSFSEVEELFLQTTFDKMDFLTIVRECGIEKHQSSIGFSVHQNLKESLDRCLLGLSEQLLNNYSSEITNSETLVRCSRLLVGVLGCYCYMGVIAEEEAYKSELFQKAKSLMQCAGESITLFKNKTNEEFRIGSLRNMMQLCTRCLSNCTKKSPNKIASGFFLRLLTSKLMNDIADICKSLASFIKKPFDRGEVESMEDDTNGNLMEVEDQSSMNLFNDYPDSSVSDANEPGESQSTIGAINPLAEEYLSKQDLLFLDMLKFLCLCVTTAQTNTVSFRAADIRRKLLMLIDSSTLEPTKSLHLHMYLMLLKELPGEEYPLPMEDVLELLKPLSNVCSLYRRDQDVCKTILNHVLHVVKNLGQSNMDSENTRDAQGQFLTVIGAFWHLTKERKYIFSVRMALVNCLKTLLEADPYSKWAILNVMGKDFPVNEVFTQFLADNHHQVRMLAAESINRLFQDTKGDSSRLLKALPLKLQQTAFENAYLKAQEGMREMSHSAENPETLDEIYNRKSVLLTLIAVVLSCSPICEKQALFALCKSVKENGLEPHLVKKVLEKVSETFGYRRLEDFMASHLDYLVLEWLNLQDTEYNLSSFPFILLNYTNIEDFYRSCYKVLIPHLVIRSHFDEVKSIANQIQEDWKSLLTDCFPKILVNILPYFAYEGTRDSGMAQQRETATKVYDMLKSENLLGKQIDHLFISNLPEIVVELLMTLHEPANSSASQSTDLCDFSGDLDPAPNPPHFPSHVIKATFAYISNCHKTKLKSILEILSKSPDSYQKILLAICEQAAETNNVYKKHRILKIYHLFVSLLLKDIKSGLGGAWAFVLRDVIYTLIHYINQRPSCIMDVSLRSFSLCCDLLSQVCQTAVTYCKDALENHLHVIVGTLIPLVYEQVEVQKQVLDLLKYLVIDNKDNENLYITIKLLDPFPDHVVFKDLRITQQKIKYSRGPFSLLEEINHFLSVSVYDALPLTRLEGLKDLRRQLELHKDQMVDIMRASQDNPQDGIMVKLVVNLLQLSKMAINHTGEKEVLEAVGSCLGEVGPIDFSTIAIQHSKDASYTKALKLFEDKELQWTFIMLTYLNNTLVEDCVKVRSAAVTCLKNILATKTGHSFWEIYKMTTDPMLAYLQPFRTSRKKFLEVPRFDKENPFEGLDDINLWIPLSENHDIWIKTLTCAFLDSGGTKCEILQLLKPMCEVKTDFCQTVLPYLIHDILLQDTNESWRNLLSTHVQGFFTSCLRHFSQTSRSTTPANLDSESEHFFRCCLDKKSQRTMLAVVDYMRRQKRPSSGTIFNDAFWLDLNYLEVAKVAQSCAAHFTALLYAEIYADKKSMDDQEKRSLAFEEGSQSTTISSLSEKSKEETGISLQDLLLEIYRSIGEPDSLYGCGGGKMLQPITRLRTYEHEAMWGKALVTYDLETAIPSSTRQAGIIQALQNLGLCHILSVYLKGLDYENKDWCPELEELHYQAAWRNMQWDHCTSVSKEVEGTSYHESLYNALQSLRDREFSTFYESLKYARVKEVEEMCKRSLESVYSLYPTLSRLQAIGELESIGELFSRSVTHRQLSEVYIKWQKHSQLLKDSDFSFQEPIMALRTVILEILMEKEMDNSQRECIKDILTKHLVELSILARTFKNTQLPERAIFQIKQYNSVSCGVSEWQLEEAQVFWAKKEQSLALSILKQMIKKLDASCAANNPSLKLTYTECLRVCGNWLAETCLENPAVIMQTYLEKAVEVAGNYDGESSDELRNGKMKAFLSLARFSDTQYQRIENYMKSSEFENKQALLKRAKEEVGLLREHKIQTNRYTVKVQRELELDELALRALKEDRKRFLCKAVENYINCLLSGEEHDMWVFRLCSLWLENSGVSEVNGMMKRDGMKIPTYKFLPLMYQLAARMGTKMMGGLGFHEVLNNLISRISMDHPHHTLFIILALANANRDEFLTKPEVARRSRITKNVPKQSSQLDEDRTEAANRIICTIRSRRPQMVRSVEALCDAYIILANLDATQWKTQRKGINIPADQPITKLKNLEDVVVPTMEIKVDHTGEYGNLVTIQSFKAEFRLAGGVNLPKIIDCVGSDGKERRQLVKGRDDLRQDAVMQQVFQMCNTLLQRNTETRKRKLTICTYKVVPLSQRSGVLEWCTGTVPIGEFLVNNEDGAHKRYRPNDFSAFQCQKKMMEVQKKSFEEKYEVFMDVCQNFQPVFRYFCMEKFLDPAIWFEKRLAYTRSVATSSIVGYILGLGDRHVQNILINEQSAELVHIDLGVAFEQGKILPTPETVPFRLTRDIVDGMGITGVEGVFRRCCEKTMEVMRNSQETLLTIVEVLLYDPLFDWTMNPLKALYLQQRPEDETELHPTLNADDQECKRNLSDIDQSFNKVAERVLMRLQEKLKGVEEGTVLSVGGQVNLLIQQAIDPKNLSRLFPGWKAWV

With `Cc1cccc(C(CN(C)C)Nc2ccc3c(c2)Sc2cccc(-c4cc(N5CCOCC5)cc(=O)[nH]4)c2S3)n1` (centres unmarked) [Example 1-22-3, 6-(7-((2-(Dimethylamino)-1-(6-methylpyridin-2-yl)ethyl)amino)thianthren-1-yl)-4-morpholino pyridin-2 (1H)-one], the SER2 (concentration at which the radiation sensitivity-enhancement ratio reaches 2) in experiment [1] (Homo sapiens, NCI-H460, 120 h) is less than 100 nM. At ATM, the IC50 was less than 100 nM.

Take `Cc1cccc(CNc2ccc3c(c2)Sc2cccc(-c4cc(N5CCOCC5)cc(=O)[nH]4)c2O3)n1` [Example 4-8-5, 6-(8-(((6-Methylpyridin-2-yl)methyl)amino)phenoxathiin-4-yl)-4-morpholino pyridin-2(1H)-one]: the SER2 (concentration at which the radiation sensitivity-enhancement ratio reaches 2) in experiment [1] (Homo sapiens, NCI-H460, 120 h) lay within 100 to 500 nM. Moreover, the IC50 on ATM is less than 100 nM.

Regarding `CNc1ccc(CNc2ccc3c(c2)Sc2cccc(-c4cc(N5CCOCC5)cc(=O)[nH]4)c2O3)cn1` [Example 4-4-6, 6-(8-(((6-(Methylamino)pyridin-3-yl)methyl)amino)phenoxathiin-4-yl)-4-morpholino pyridin-2(1H)-one], the SER2 (concentration at which the radiation sensitivity-enhancement ratio reaches 2) in experiment [1] (Homo sapiens, NCI-H460, 120 h) lay in the range of 500 to 2000 nM. Also, at ATM, the IC50 was less than 100 nM.

In the case of `COCC(Nc1ccc2c(c1)Sc1cccc(-c3cc(N4CCOCC4)cc(=O)[nH]3)c1S2)c1ccc(C)cn1` (centres unmarked) [Example 1-12-100, 6-(7-((2-Methoxy-1-(5-methylpyridin-2-yl)ethyl)amino)thianthren-1-yl)-4-morpholino pyridin-2(1H)-one], the SER2 (concentration at which the radiation sensitivity-enhancement ratio reaches 2) in experiment [1] (Homo sapiens, NCI-H460, 120 h) is less than 100 nM. Besides, on ATM, the IC50 was less than 100 nM.

`O=c1cc(N2CCOCC2)cc(-c2cccc3c2Sc2ccc(N[C@@H]4CCCC[C@@H]4N4CCOCC4)cc2S3)[nH]1` [Example 1-48-2, 4-Morpholino-6-(7-(((1R,2S)-2-morpholinocyclohexyl)amino)thianthren-1-yl)pyridin-2(1H)-one]: the SER2 (concentration at which the radiation sensitivity-enhancement ratio reaches 2) in experiment [1] (Homo sapiens, NCI-H460, 120 h) is less than 100 nM. The IC50 on ATM was less than 100 nM.

On to `COc1ncccc1CN1CCC(Nc2ccc3c(c2)Cc2cccc(-c4cc(N5CCOCC5)cc(=O)[nH]4)c2O3)CC1` [Example 2-28-5, 6-(7-((1-((2-Methoxypyridin-3-yl)methyl)piperidin-4-yl)amino)-9H-xanthen-4-yl)-4-morpholino pyridin-2(1H)-one], for which, in experiment [1] (Homo sapiens, NCI-H460, 120 h), the SER2 (concentration at which the radiation sensitivity-enhancement ratio reaches 2) fell in the range of 500 to 2000 nM. For the same compound, the IC50 on ATM was less than 100 nM.

Regarding `O=c1cc(N2CCOCC2)cc(-c2cccc3c2Oc2ccc(NCc4ccnc(Br)c4)cc2S3)[nH]1` [Example 4-4-16, 6-(8-(((2-Bromopyridin-4-yl)methyl)amino)phenoxathiin-4-yl)-4-morpholino pyridin-2(1H)-one], in experiment [1] (Homo sapiens, NCI-H460, 120 h), the SER2 (concentration at which the radiation sensitivity-enhancement ratio reaches 2) fell in the range of 100 to 500 nM. Besides, the IC50 on ATM was less than 100 nM.

On to `Cc1nccc(C(C)Nc2ccc3c(c2)Sc2cccc(-c4cc(N5CCOCC5)cc(=O)[nH]4)c2S3)n1` (single isomer, unassigned) [Example 1-12-141-1, 6-(7-((1-(2-methylpyrimidin-4-yl)ethyl)amino)thianthren-1-yl)-4-morpholinopyridin-2(1H)-one], for which the SER2 (concentration at which the radiation sensitivity-enhancement ratio reaches 2) in experiment [1] (Homo sapiens, NCI-H460, 120 h) was 100 to 500 nM. Besides, the IC50 at ATM is less than 100 nM.

For `Cc1cnc(CNc2ccc3c(c2)Sc2cccc(-c4cc(N5CCOCC5)cc(=O)[nH]4)c2S3)cn1` [Example 1-12-62, 6-(7-(((5-Methylpyrazin-2-yl)methyl)amino)thianthren-1-yl)-4-morpholino pyridin-2 (1H)-one], the SER2 (concentration at which the radiation sensitivity-enhancement ratio reaches 2) in experiment [1] (Homo sapiens, NCI-H460, 120 h) was in the range of 100 to 500 nM. Besides, the IC50 at ATM is less than 100 nM.

On to `Cc1ccc(C(Nc2ccc3c(c2)Sc2cccc(-c4cc(N5CCOCC5)cc(=O)[nH]4)c2S3)C2CN(C)CCO2)nc1` (single isomer, unassigned) [Example 1-52-1, 6-(7-(((4-methylmorpholin-2-yl)(5-methylpyridin-2-yl)methyl)amino)thianthren-1-yl)-4-morpholinopyridin-2(1H)-one], for which the SER2 (concentration at which the radiation sensitivity-enhancement ratio reaches 2) in experiment [1] (Homo sapiens, NCI-H460, 120 h) is less than 100 nM. In addition, on ATM, the IC50 is less than 100 nM.

With “6-(7-(((5-Methyl pyridin-2- yl)(1-methyl pyrrolidin-3-yl) methyl)amino)thianthren-1- yl)-4-morpholino pyridin-2 (1H)-one [Example 1-22-9]”, in experiment [1], the SER2 (concentration at which the radiation sensitivity-enhancement ratio reaches 2) is less than 100 nM. For the same compound, the IC50 at ATM was less than 100 nM.

With `O=c1cc(N2CCOCC2)cc(-c2cccc3c2Sc2ccc(NC(CF)CN4CCOCC4)cc2S3)[nH]1` (racemic) [Example 1-41-1-1, 6-(7-((1-Fluoro-3-morpholinopropan-2-yl)amino)thianthren-1-yl)-4-morpholinopyridin-2(1H)-one], in experiment [1] (Homo sapiens), the SER2 (concentration at which the radiation sensitivity-enhancement ratio reaches 2) was less than 100 nM. Moreover, the IC50 at ATM is less than 100 nM.

`C[C@@H]1CN(CCNc2ccc3c(c2)Sc2cccc(-c4cc(N5CCOCC5)cc(=O)[nH]4)c2S3)C[C@H](C)O1` [Example 1-10-14, 6-(7-((2-((2S,6R)-2,6- Dimethylmorpholino)ethyl)amino)thianthren-1-yl)-4-morpholino pyridin-2(1H)-one]: in experiment [1] (Homo sapiens, NCI-H460, 120 h), the SER2 (concentration at which the radiation sensitivity-enhancement ratio reaches 2) lay in the range of 100 to 500 nM. Moreover, on ATM, the IC50 was less than 100 nM.

As for `COC[C@H](CN1CCOC(C)(C)C1)Nc1ccc2c(c1)Sc1cccc(-c3cc(N4CCOCC4)cc(=O)[nH]3)c1S2` [Example 1-46-9, (S)-6-(7-((1-(2,2-Dimethylmorpholino)-3-methoxypropan-2-yl)amino)thianthren-1-yl)-4-morpholino pyridin-2(1H)-one], in experiment [1] (Homo sapiens, NCI-H460, 120 h), the SER2 (concentration at which the radiation sensitivity-enhancement ratio reaches 2) was in the range of 100 to 500 nM. Also, the IC50 at ATM is less than 100 nM.

In the case of `O=c1cc(N2CCOCC2)cc(-c2cccc3c2Oc2ccc(NCc4ccnc(Br)c4)cc2C3)[nH]1` [Example 2-2-53, 6-(7-(((2-Bromopyridin-4-yl)methyl)amino)-9H-xanthen-4-yl)-4-morpholino pyridin-2 (1H)-one], the SER2 (concentration at which the radiation sensitivity-enhancement ratio reaches 2) in experiment [1] (Homo sapiens, NCI-H460, 120 h) fell in the range of 500 to 2000 nM. For the same compound, the IC50 on ATM is less than 100 nM.

Regarding `O=c1cc(N2CCOCC2)cc(-c2cccc3c2Sc2ccc(NC4CCCC4N4CCOCC4)cc2S3)[nH]1` (single isomer, unassigned) [Example 1-16-1-2, 4-morpholino-6-(7-((2-morpholinocyclopentyl)amino)thianthren-1-yl)pyridin-2(1H)-one], the SER2 (concentration at which the radiation sensitivity-enhancement ratio reaches 2) in experiment [1] (Homo sapiens, NCI-H460, 120 h) is less than 100 nM. Further, the IC50 at ATM is less than 100 nM.

Turning to `Cc1cccc(C(Nc2ccc3c(c2)Sc2cccc(-c4cc(N5CCOCC5)cc(=O)[nH]4)c2S3)C2CCN(C)C2)n1` (single isomer, unassigned) [Example 1-22-7, 6-(7-(((6-Methylpyridin-2-yl)(1-methylpyrrolidin-3-yl)methyl)amino)thianthren-1-yl)-4-morpholino pyridin-2 (1H)-one], the SER2 (concentration at which the radiation sensitivity-enhancement ratio reaches 2) in experiment [1] is less than 100 nM. Also, on ATM, the IC50 is less than 100 nM.

`COc1cc(OC)nc(CNc2ccc3c(c2)Cc2cccc(-c4cc(N5CCOCC5)cc(=O)[nH]4)c2O3)n1` [Example 2-2-51, 6-(7-(((4,6-Dimethoxypyrimidin-2-yl)methyl)amino)-9H-xanthen-4-yl)-4-morpholino pyridin-2 (1H)-one]: in experiment [1] (Homo sapiens, NCI-H460, 120 h), the SER2 (concentration at which the radiation sensitivity-enhancement ratio reaches 2) was in the range of 500 to 2000 nM. Moreover, the IC50 on ATM was less than 100 nM.

For the compound `O=c1cc(N2CCOCC2)cc(-c2cccc3c2Sc2ccc(NCc4ccnc(Cl)c4)cc2S3)[nH]1` [Example 1-12-18], the IC50 in experiment [1] (read-out: SER2) was 100 to 500 nM; on ATM, less than 100 nM.

(Values after patent US9586951B2 (FUJIFILM Corporation, priority 2013, dated 2017).)
